Earlier results on one compound are cited in patent publication US6703390B2, “Sulfur containing dihydrophthalazine antagonists of excitatory amino acid receptors” (Transgenomic, Inc., priority 2000, dated 2004).

Read-outs that look alike come from different tables or passages of the source.

Data set [1] deals with common carotid arteries model of global ischemia. The note with it: compared with the competitive antagonist NBQX.
The subject of data set [2] is middle cerebral artery occlusion (MCAO) model of ischemia.

For the compound `CC1=NN=C(c2ccc(N)cc2)c2cc3c(cc2C1)OCO3` [GYKI 52466], the “efficacy in global ischemia model” value in data set [1] was “as effective as the glutamate site competitive antagonist NBQX”. Besides, the results for the “reduced cortical infarct volumes” value in data set [2] (given continuously for 2 hours just after occlusion) and in data set [2] (given delayed for one hour after occlusion) were 68% and 48%, respectively. In data set [2] (given either continuously for 2 hours just after occlusion or delayed for one hour), the “efficacy in MCAO model of ischemia” value is listed as “effective”.
